Values quoted from earlier work as cited in US20230404937A1, “NOVEL DISINTEGRATION ORAL FILM FORMULATION WITH A CONTROLLED OR SUSTAINED ACTIVE RELEASE” (INTELGENX CORP., priority 2022, published 2023).

Settings: when orally ingested; first metabolized in the liver

## CCCCCc1cc(O)c2c(c1)OC(C)(C)[C@@H]1CCC(C)=C[C@@H]21 [THC, tetrahydrocannabinol]
  oral bioavailability: 5%
